Experimental data reported in US20240207288A1, “METHODS OF TREATING ESOPHAGEAL STRICTURES” (Ellodi Pharmaceuticals, L.P., priority 2021, published 2024).

Tested on: subjects with strictures and/or rings and EoE
Test: Clinical trial of FP ODT: endoscopy (EREFS, strictures, rings)
Type: in vivo, human
Conditions: for Stricture and Grade 2 Rings at Week 12, % / Stricture at Week 12, % / Stricture or Grade 2 Rings at Week 12, % / Subjects with new strictures and/or rings at Week 12, % / Endoscopy Responder Rate (overall EFEFS score ≤4), %: subgroup with strictures and/or Grade 2 rings at baseline; for Endoscopy Responder Rate (overall EFEFS score ≤4), %: Week 12
From the text: In some embodiments, the strictures and/or rings are diagnosed using EoE Endoscopic Reference Score (EREFS), which measures edema (e.g., decreased vascularity or pallot), rings present, exudates (e.g., white plaques), furrows, and/or stricture in the esophagus according to Table 1. In embodiments, the patient also has a grade 2 or grade 3 ring.
In some embodiments, the methods of the present disclosure cause an improvement in a patient's EoE Endoscopic Reference score (EREFS). The EREFS identifies the severity of five endoscopic findings: edema, rings, exudates, furrows, and strictures. The EREFS classification system rates the severity of each of the endoscopic findings. The severity of edema is rated on a scale from 0 to 2. The severity of rings is rated from 0 to 3. The severity of exudates is rated from 0 to 2. The severity of furrows is rated from 0 to 2. The severity of strictures is rated from 0 to 1. The absence of a finding corresponds to a score of 0. The presence of a finding corresponds to a score of 1, 2, or 3. A higher score is correlated with higher severity. In some embodiments, the composite EREFS score, or the sum of the individual scores, is utilized to indicate the severity of EoE. In some embodiments, the inflammatory EREFS score, or the sum of the individual edeme, exudate, and furrows score, is utilized to indicate the severity of EoE. In some embodiments, a higher inflammatory or composite EREFS score corresponds to the severity of EoE. In some embodiments, the inflammatory or composite EREFS score decreases after treatment with a corticosteroid according to the methods of the disclosure. In some embodiments the inflammatory or composite EREFS score decreases by 0.1, or about 0.2, or about 0.3, or about 0.4, or about 0.5, or about 0.6, or about 0.7, or about 0.8, or about 0.9, or about 1.0, or about 1.1, or about 1.2, or about 1.3, or about 1.4, or about 1.5, or about 1.6, or about 1.7, or about 1.8, or about 1.9, or about 2.0, or about 2.1, or about 2.2, or about 2.3, or about 2.4, or about 2.5, or about 2.6, or about 2.7, or about 2.8, or about 2.9, or about 3.0, or about 3.1, or about 3.2, or about 3.3, or about 3.4, or about 3.5, or about 3.6, or about 3.7, or about 3.8, or about 3.9, or about 4.0, or about 4.1, or about 4.2, or about 4.3, or about 4.4, or about 4.5, or about 4.6, or about 4.7, or about 4.8, or about 4.9, or about 5.0, or about 5.1, or about 5.2, or about 5.3, or about 5.4, or about 5.5, or about 5.6, or about 5.7, or about 5.8, or about 5.9, or about 6.0, or about 6.1, or about 6.2, or about 6.3, or about 6.4, or about 6.5, or about 6.6, or about 6.7, or about 6.8, or about 6.9, or about 7.0, or about 7.1, or about 7.2, or about 7.3, or about 7.4, or about 7.5, or about 7.6, or about 7.7, or about 7.8, or about 7.9, or about 8.0, or about 8.1, or about 8.2, or about 8.3, or about 8.4, or about 8.5, or about 8.6, or about 8.7, or about 8.8, or about 8.9, or about 9.0, or about 9.1, or about 9.2, or about 9.3, or about 9.4, or about 9.5, or about 9.6, or about 9.7, or about 9.8, or about 9.9, or about 10.0 points, or more, inclusive of all ranges between these values. In some embodiments, the EREFS score decreases by 1%, or 5%, or 10%, or 15%, or 20%, or 25%, or 30%, or 35%, or 40%, or 45%, or 50%, or 55%, or 60%, or 65%, or 70%, or 75%, or 80%, or 85%, or 90%, or 95% or more, inclusive of all ranges between these values. The following article, incorporated by reference in its entirety herein, describes the EREFS score: Wechsler, Clin Hepatol. 2018 July; 16(7): 1056-1063.
A clinical trial was performed to evaluate the effect of an orally disintegrating tablet (“ODT”) comprising fluticasone propionate (FP). A randomised, double-blind, placebo-controlled, multicentre, dose-ranging, and maintenance study of FP in subjects (>18 and <75 years of age) with strictures and/or rings and EoE. […]

[1] = all FP dosing groups, TOTAL (n = 43)

In the case of “S-(fluoromethyl)-6α,9-difluoro-11β, 17-dihydroxy-16α-methyl-3-oxoandrosta-1, 4-diene-17β-carbothioate, 17-propanoate [FP]”, the “Stricture and Grade 2 Rings at Week 12, %” value (FP 1.5 mg BID (n = 12)) is reported as 0%, the “Stricture at Week 12, %” value (FP 1.5 mg BID (n = 12)) is reported as 42% and the “Stricture or Grade 2 Rings at Week 12, %” value (FP 1.5 mg BID (n = 12)) is reported as 50%. For the same substance, the “Subjects with new strictures and/or rings at Week 12, %” value (shortened to “Subjects … %”) (FP 1.5 mg BID (n = 12)) was 0%, the “Endoscopy Responder Rate (overall EFEFS score ≤4), %” value (“Endoscopy Responder Rate … %” below) (FP 1.5 mg BID (n = 12)) was 92% and the “Stricture and Grade 2 Rings at Week 12, %” value (FP 1.5 mg HS (n = 13)) was 0%. The “Stricture at Week 12, %” value (FP 1.5 mg HS (n = 13)) was 8%, the “Stricture or Grade 2 Rings at Week 12, %” value (FP 1.5 mg HS (n = 13)) was 15% and the “Subjects … %” value (FP 1.5 mg HS (n = 13)) was 0%. The “Endoscopy Responder Rate … %” value (FP 1.5 mg HS (n = 13)) was 77%, the “Stricture and Grade 2 Rings at Week 12, %” value (FP 3 mg BID (n = 7)) was 0% and the “Stricture at Week 12, %” value (FP 3 mg BID (n = 7)) was 29%. The “Stricture or Grade 2 Rings at Week 12, %” value (FP 3 mg BID (n = 7)) was 29%, the “Subjects … %” value (FP 3 mg BID (n = 7)) was 0% and the “Endoscopy Responder Rate … %” value (FP 3 mg BID (n = 7)) was 86%. For the same substance, the “Stricture and Grade 2 Rings at Week 12, %” value (FP 3 mg HS (n = 11)) was 0%, the “Stricture at Week 12, %” value (FP 3 mg HS (n = 11)) was 9% and the “Stricture or Grade 2 Rings at Week 12, %” value (FP 3 mg HS (n = 11)) was 18%. The “Subjects … %” value (FP 3 mg HS (n = 11)) was 0%, the “Endoscopy Responder Rate … %” value (FP 3 mg HS (n = 11)) was 100% and the “Stricture and Grade 2 Rings at Week 12, %” value [1] was 0%. The “Stricture at Week 12, %” value [1] was 21%, the “Stricture or Grade 2 Rings at Week 12, %” value [1] was 28% and the “Subjects … %” value [1] was 0%. For the same substance, the “Endoscopy Responder Rate … %” value [1] was 88%, the “Grade 2 Rings at Week 12, %” value (all FP dosing groups, subjects with stricture/rings at baseline) was 7% and the “Effect on strictures and/or grade 2 esophageal rings (post-hoc analysis)” value (patients with strictures and/or grade 2 esophageal rings at baseline, particularly the 3-mg HS dosing group) was “improvement or resolution of these features in most patients”.
